Data as given in patent US20220089540A1 (Board of Trustees of Michigan State University, priority 2019, published 2022).

Experiments:
E18-14C-27C cancer cells = assay: PD-1 and PD-L1 expression in E18-14C-27C cancer cells; assay type: cell-based, mouse; settings: 72 hours
Procedure: (§1) RAW 264.7 mouse macrophage-like (ATCC) and E18-14C-27 (Wu et al., Cancer Res. 62, 6376-6380 (2002)) cells were cultured in DMEM supplemented with 10% fetal bovine serum (FBS). RAW 264.7 cells were cultured at 50000/well in a 6 well plate for 24 hours to determine PD-L1 levels. E18-14C-27 cells were cultured for 72 hours in the presence of LG268 for protein levels. Conditioned media was collected from E18-14C-27 at 60-70% confluence for 24 hours; media was then collected and centrifuged at 900 rpm for 5 minutes to eliminate any cell debris.
To determine if these changes occurred in the tumor cells or in the macrophages, E18-14C-27C and RAW 264.7 cell lines were treated with LG268. […] Similar observations were made in human THP-1 monocytic cells stimulated with conditioned media from human HER2 positive SK-BR-3 breast cancer cells and treated with LG268 or bexarotene for 24 hours (FIG. 5E-5F).

tumors of PyMT mice [1] = assay: PyMT mouse model of triple negative breast cancer, treatment until endpoint; assay type: in vivo
Procedure: To determine if the immune modulation induced by LG268 treatment in MMTV-Neu mice could be extended to a model of triple negative breast cancer (TNBC), the inventors repeated the in vivo studies in PyMT mice. PyMT mice with a tumor volume of 32-64 mm^3 were treated with LG268 (100 mg/kg of diet) or with a control diet until the tumor burden met maximum defined endpoints allowed by the IACUC-approved animal protocol (individual tumor volume <520 mm^3). In mice receiving the control diet, these tumors progressed extremely rapidly so that the average age to reach maximum tumor volume was 31 days.

tumors of PyMT mice [2] = assay: PyMT mice, 15-day protocol with or without anti-PD-L1 antibodies; assay type: in vivo, mouse
Procedure: To evaluate if LG268 treatment would have immunomodulatory effects, PyMT mice with a tumor volume of 32-64 mm^3 were treated with LG268 (100 mg/kg of diet) or control diet for 14 days (FIG. 7A). Mice were euthanized at day 15, and tumor, intact mammary gland and spleen were analyzed by flow cytometry, immunohistochemistry and immunoblotting (whole tumor lysates). At day 15, mice treated with LG268 presented higher levels of PD-L1 when compared with control mice (FIG. 7D-7E).
The inventors tested whether the combination of an immune checkpoint inhibitor and LG268 for the treatment of PyMT tumors would further increase the infiltration of cytotoxic CD8 T cells. PyMT mice with 32-64 mm3 mice were treated by intraperitoneal injection with anti-PD-L1 (40 μg/mouse) or isotype control antibodies on days 3, 7 and 11, in combination with LG268 or control diet (FIG. 7A).

PD-L1 [3] = assay: PD-L1 in THP-1 cells stimulated with SK-BR-3 conditioned media (flow cytometry); assay type: cell-based, human; settings: 24 hours
Procedure: THP-1 (ATCC) cells were cultured in RPMI supplemented with 5% FBS, and SK-BR-3 (ATCC) cells were cultured in DMEM supplemented with 10% FBS. THP-1 cells were cultured at 50000/well in a 6 well plate for 24 hours to determine PD-L1 levels with conditioned media from SK-BR-3 cells. Culturing SK-BR-3 cells at 60-70% confluence for 24 hours generated conditioned media; media was then collected and centrifuged at 900 rpm for 5 minutes to eliminate any cell debris. THP-1 cells were then plated at 100000 cells/well with the conditioned media, LG268 was added simultaneously.
(§2) For PD-L1 staining, RAW 264.7 cells were plated at 25000 cells/ml in 6 well plates for 24 hours before adding conditioned media from E18-14C-27 and LG268. RAW 264.7 cells were cultured for additional 24 hours with E18-14C-27 conditioned media and LG268. […] THP-1 cells were stained and analyzed for the levels of PD-L1 following the same protocol.

PD-L1 [4] = assay: PD-L1 induction in macrophages or RAW264.7 cells with cancer cell conditioned media (flow cytometry); assay type: cell-based, mouse; settings: for PD-L1 Levels: Table 4, Control 43.3
Procedure: as §1, §2
Inhibitory receptors on lymphocytes such as PD-1 (programmed cell death protein 1) are important immune checkpoints that protect against autoimmunity as the interaction between PD-L1 (ligand) and the PD-1 receptor expressed on immune cells suppresses T cell activity. Immuno-oncology is revolutionizing cancer treatment, and enormous research efforts are ongoing to identify drugs that upregulate PD-L1 so that they can be combined with checkpoint inhibitors to boost efficacy. Macrophages or RAW264.7 cells are treated with conditioned media from cancer cells and rexinoids, and PD-L1 expression determined by flow cytometry. Higher numbers indicate better upregulation of PD-LI.
Using methods described herein, macrophages or RAW264.7 cells were treated with selected rexinoids and with conditioned media from cancer cells. Structures of the rexinoids are shown below.
PD-L1 expression was determined by flow cytometry.

lung tumors of A/J mice = assay: Vinyl carbamate-induced (Kras) lung cancer in A/J mice; assay type: in vivo, mouse
Procedure: To evaluate the effects of LG268, with and without other chemotherapeutic agents, female A/J mice were injected with a weekly dose of vinyl carbamate for twelve weeks to induce lung tumors of between 0.5 and 1 mm in diameter. A/J mice were randomized and treated with either control diet or rexinoids fed in the diet (100 mg/kg diet). One week after the treatment diets started, mice were injected with 6 cycles of carboplatin (50 mg/kg i.p.), paclitaxel (15 mg/kg i.p.), or a combination thereof, given every other week. At the end of the studies, lungs were harvested en bloc and inflated with buffered formalin (NBF); liver and plasma were collected to determine drug levels and lipid concentrations. Step sectioning (200 μm between sections) of the left lung started at the medial hilar surface, and sections were stained with hematoxylin and eosin. The number, size, and histopathology of randomized, coded tumors were assessed on two separate sections of each lung by two independent investigators. Classification of the tumors as low, medium, or high grade was based on previously published histologic and nuclear criteria. The efficacy of other rexinoids (e.g., MSU 42011) for treatment of lung cancer, alone and in combination with standard of care chemotherapy (carboplatin and paclitaxel), is currently being evaluated in this preclinical model.

Cc1cc2c(cc1C1(c3ccc(C(=O)O)cn3)CC1)C(C)(C)CCC2(C)C [LG268]
PD-L1 expression (E18-14C-27C cancer cells; flow cytometry): did not change | PD-1 expression (E18-14C-27C cancer cells; western blot): decreased | average survival (time to maximum tumor volume) (tumors of PyMT mice [1]; 100 mg/kg diet, control 31 days): 49 days | infiltration of CD8 T cells (tumors of PyMT mice [1]; at endpoint): increased infiltration | levels of CD206 and p-STAT3 in whole lysates of the tumors (tumors of PyMT mice [1]; at endpoint): No differences | cells undergoing apoptosis (cleaved caspase 3) (tumors of PyMT mice [1]; immunohistochemistry at endpoint): higher number of cells undergoing apoptosis | p-STAT1 in whole lysates of tumors (tumors of PyMT mice [1]; western blot at endpoint): tendency for lower levels | PD-L1 levels in tumors vs control (tumors of PyMT mice [2]; 100 mg/kg diet, day 15): higher levels | immune cell populations infiltrating to the tumors (tumors of PyMT mice [2]; LG268 alone, day 15): did not induce any changes | spleen weight vs control diet (tumors of PyMT mice [2]; LG268 only): significant decrease | PD-L1 levels in THP-1 human macrophages (PD-L1 [3]): increases | PD-L1 Levels (PD-L1 [4]; 100 nM): 66.7 | PD-L1 Levels (PD-L1 [4]; 1000 nM): 77 | PD-L1 levels in RAW 264.7 cells with E18-14C-27C conditioned media (PD-L1 [4]; 24 hours): increased levels | average number of lung tumors (lung tumors of A/J mice; LG268 100 mg/kg diet 12 weeks, C 50 mg/kg i.p., P 15 mg/kg i.p., 6 injections, control 3.4±0.25): 2.2±0.28 | average tumor size (lung tumors of A/J mice; control 0.58±0.09 mm^3): 0.24±0.03 mm^3 | average tumor burden (lung tumors of A/J mice; control 1.99±0.34 mm^3): 0.52±0.12 mm^3 | percentage of high grade tumors (lung tumors of A/J mice; control 71%): 52% | decrease of average tumor size vs controls (lung tumors of A/J mice; mouse, in vivo): 59% | diminution of average tumor burden vs control (lung tumors of A/J mice; mouse, in vivo): 74%
